The values that follow come from patent publication US20130217702A1 (Richter Gedeon Nyrt., priority 2010, published 2013).

The target of assay [1] is T1, recombinant human B1 receptors (Homo sapiens, UniProt P46663).
T1 construct: host or cells: CHO (CHO-B1)
T1 sequence (P46663 1-353): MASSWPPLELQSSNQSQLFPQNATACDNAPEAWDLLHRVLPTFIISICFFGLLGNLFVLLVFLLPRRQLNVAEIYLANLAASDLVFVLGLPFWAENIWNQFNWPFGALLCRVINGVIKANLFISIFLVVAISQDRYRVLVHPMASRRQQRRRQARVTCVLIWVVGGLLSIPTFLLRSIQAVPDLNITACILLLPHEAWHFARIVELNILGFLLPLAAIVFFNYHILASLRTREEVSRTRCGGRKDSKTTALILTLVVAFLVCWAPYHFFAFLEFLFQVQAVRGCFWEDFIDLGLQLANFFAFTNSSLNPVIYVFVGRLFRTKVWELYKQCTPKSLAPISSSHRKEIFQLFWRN
As to the kind of experiment: Functional assay: antagonist potency by cytosolic calcium measurement (plate reader fluorimeter) in CHO-B1 cells, agonist LysDABK. Type of assay: cell-based. Conditions: CHO-B1 cells, inhibition of LysDABK (EC80)-evoked [Ca2+]i elevation; read-out: B1 func. The method, then:
Assessment of Antagonist Potency at B1 Receptors In Vitro by Measurement of Cytosolic Calcium Ion Concentration with a Plate Reader Fluorimeter in Cells Expressing Recombinant Human B1 Receptors
Chinese hamster ovary (CHO) cells stably expressing recombinant human B1 (CHO-B1, Euroscreen) receptors were cultured in Dulbecco's Modified Eagle's Medium (DMEM) containing 10% Fetal Calf Serum (FCS), 100 U/ml penicillin, 0.1 mg/ml streptomycin, 0.25 μg/ml amphotericin B, 1% Minimum Essential Medium Eagle (MEM), non essential amino acid solution, 600 μg/ml G418. Cells were kept at 37° C. in a humidified incubator in an atmosphere of 5% CO2/95% air and were passaged 1:4 three times a week. Cells were plated at 1.5−2.5×10^4 cell/well on standard 96-well microplates, measurements of cytosolic calcium ion concentration ([Ca^2+]i) were carried out 1-2 days after cell plating.
Measurements of [Ca^2+]i were carried out on CHO-B1 cells stably expressing human B1 receptors, respectively. Cells were grown in standard 96-well microplates and before the measurement were loaded with a fluorescent Ca^2+-sensitive dye, fluo-4/AM (2 μM): after removing the culture medium the dye was added to the cells (dissolved in assay buffer: 145 mM NaCl, 5 mM KCl, 2 mM MgCl2, 2 mM CaCl2, 10 mM HEPES, 20 mM D-glucose, 2 mM probenecid, 100 μl/well) and cells were incubated at 37° C. in a humidified incubator in an atmosphere of 5% CO2/95% air for 40-120 min. To stop dye loading cells were washed twice with assay buffer. After washing, various concentrations of the test compounds (diluted in extracellular medium from a DMSO stock solution, final DMSO concentration was <0.1%) or buffer were added to each well depending on the experimental setup. After incubation at 37° C. for 20-25 min. baseline and agonist-evoked changes of [Ca^2+]; were measured column by column with a plate reader fluorimeter (Fluoroskan Ascent, Labsystems). Excitation and detection of emission was carried out from the bottom of the plate. Filters used for Fluo-4: excitation filter 485 nm, emission filter 538 nm. The whole measurement process was performed at 37° C. and was controlled by custom software. Inhibitory potency of the test compounds was assessed by measuring the reduction in the agonist-evoked [Ca^2+]i-elevation in the presence of different concentrations of the compounds. The agonist was LysDABK for CHO-B1 cells. Agonist was applied at an EC80 concentration; the EC80-values were derived from daily determined dose-response curves. Fluorescence data were expressed as ΔF/F (fluorescence change normalized to baseline). All treatments on a single plate were measured in multiple wells. Data from all wells with the same treatment were averaged and the average values were used for analysis. Inhibitory potency of a compound at a single concentration point was expressed as percent inhibition of the control agonist response. Sigmoidal concentration-inhibition curves were fitted to the data (derived from at least three independent experiments) and IC50-values were determined as the concentration that produces half of the maximal inhibition caused by the compound.

Assay [2] deals with T2, human recombinant bradykinin B1 receptor (Homo sapiens, UniProt P46663).
T2 construct: host or cells: CHO cells, clone hB1-A5
T2 sequence (P46663 1-353): T1 sequence (P46663 1-353)
Kind of assay: Human recombinant bradykinin B1 receptor competitive radioligand binding. The conditions noted are these: hB1 expressed in CHO cells, [3H]-[Des-Arg10] Kallidin radioligand; read-out: B1 binding. On the procedure: Assessment of Ligand Binding Affinity to B1 and B2 Receptors In Vitro by Competitive Radioligand Binding Assay
Binding assays were carried out on human recombinant bradykinin) receptors (expressed in CHO cells, hB1-A5) according to the Euroscreen Technical Data Sheet (Cat.No.:ES-091). 20 μg protein/tube was incubated with [3,4-prolyl-3,4-^3H(N)]-[Des-Arg^10] Kallidin as radioligand. Non specific binding was determined in the presence of 10 μM Lys-des-Arg^9-Bradykinin. The final incubation volume was 250 μl. Samples were incubated for 15 min. at 25° C. then were rapidly vacuum filtered through GF/B filters presoaked for at least 1 h in 0.5% PEI. Radioactivity was determined by liquid scintillation spectroscopy.
The ligand displacement by the compounds was determined using a minimum of seven concentrations in triplicate, and experiments were repeated at least two times. The specific radioligand binding is defined as the difference between total binding and the non-specific binding determined in the presence of an excess of unlabelled ligand. Results are expressed as a percent inhibition of specific binding obtained in the presence of RGH-478 or reference drugs. IC50 values (i.e. concentration of compound giving 50% inhibition of specific binding) were calculated from concentration-displacement curves by sigmoidal fitting using GraphPad Prism Software 4.0. Ki values (i.e. inhibition constants) were calculated using the Cheng-Prusoff equation. KD was determined from the Scatchard plot. (Editor-in-chief: Enna, S. J. and Williams, M. Current protocols in pharmacology vol. 1. John Wiley & sons Inc., 1998)

In the case of `Cn1nnc(-c2c(Cl)c3cc(Cl)ccc3n2-c2ccc(CNC(=O)C3(NC(=O)C(F)(F)F)CC3)cc2)n1` [Example 17, 1-(2,2,2-Trifluoro-acetylamino)-cyclopropanecarboxylic acid 4-[3,5-dichloro-2-(2-methyl-2H-tetrazol-5-yl)-indol-1-yl]-benzylamide], the IC50 in assay [1] was below 20 nM. For the same molecule, the Ki in assay [2] is below 20 nM.
With `COc1cc(C(=O)NC2(C(=O)NCc3ccc(-n4c(-c5nnn(C)n5)c(Cl)c5cc(Cl)ccc54)cc3)CC2)on1` [Example 18, 3-Methoxy-isoxazole-5-carboxylic acid (1-{4-[3,5-dichloro-2-(2-methyl-2H-tetrazol-5-yl)-indol-1-yl]-benzylcarbamoyl}-cyclopropyl)-amide], the IC50 in assay [1] is below 20 nM. Further, the Ki in assay [2] is below 20 nM.
On to `Cn1nnc(-c2c(Cl)c3cc(F)ccc3n2-c2ccc(CNC(=O)C3(NC(=O)C(F)(F)F)CC3)c(F)c2)n1` [Example 19], for which the IC50 in assay [1] is below 20 nM. The Ki in assay [2] was below 20 nM.
Regarding `COc1cc(C(=O)NC2(C(=O)NCc3ccc(-n4c(-c5nnn(C)n5)c(Cl)c5cc(F)ccc54)cc3F)CC2)on1` [Example 20, 3-Methoxy-isoxazole-5-carboxylic acid (1-{4-[3-chloro-5-fluoro-2-(2-methyl-2H-tetrazol-5-yl)-indol-1-yl]-2-fluoro-benzylcarbamoyl}-cyclopropyl)-amide], the IC50 in assay [1] was below 20 nM. The Ki in assay [2] was below 20 nM.
Regarding `COc1cc(C(=O)NC2(C(=O)NCc3ccc(-n4c(-c5noc(C)n5)c(C#N)c5ccccc54)cc3)CC2)on1` [Example 21, 3-Methoxy-isoxazole-5-carboxylic acid (1-{4-[3-cyano-2-(5-methyl-[1,2,4]oxadiazol-3-yl)-indol-1-yl]-benzylcarbamoyl}-cyclopropyl)-amide], the IC50 in assay [1] is below 20 nM. Further, in assay [2], the Ki is below 20 nM.
Regarding `Cn1nnc(-c2c(Cl)c3cc(Cl)ccc3n2-c2ccc(CNC(=O)C3(NC(=O)C(F)(F)F)CC3)c(F)c2)n1` [Example 22, 1-(2,2,2-Trifluoro-acetylamino)-cyclopropanecarboxylic acid 4-[3,5-dichloro-2-(2-methyl-2H-tetrazol-5-yl)-indol-1-yl]-2-fluoro-benzylamide], in assay [1], the IC50 was below 20 nM. Also, the Ki in assay [2] was below 20 nM.
As for `Cc1nc(-c2c(Cl)c3ccccc3n2-c2ccc(CNC(=O)C3(NC(=O)C(F)(F)F)CC3)cc2)no1` [Example 23, 1-(2,2,2-Trifluoro-acetylamino)-cyclopropanecarboxylic acid 4-[3-chloro-2-(5-methyl-[1,2,4]oxadiazol-3-yl)-indol-1-yl]-benzylamide], the IC50 in assay [1] was below 20 nM. In addition, in assay [2], the Ki is below 20 nM.
In the case of `Cn1nnc(-c2c(Cl)c3ccccc3n2-c2ccc(CNC(=O)C3(NC(=O)c4cc(C5CC5)on4)CC3)cc2)n1` [Example 24, 5-Cyclopropyl-isoxazole-3-carboxylic acid (1-{4-[3-chloro-2-(2-methyl-2H-tetrazol-5-yl)-indol-1-yl]-benzylcarbamoyl}-cyclopropyl)-amide], the IC50 in assay [1] was below 20 nM. Further, the Ki in assay [2] was below 20 nM.
As for `Cc1cnc(C(=O)NC2(C(=O)NCc3ccc(-n4c(-c5nnn(C)n5)c(Cl)c5ccccc54)cc3)CC2)cn1` [Example 25, 5-Methyl-pyrazine-2-carboxylic acid (1-{4-[3-chloro-2-(2-methyl-2H-tetrazol-5-yl)-indol-1-yl]-benzylcarbamoyl}-cyclopropyl)-amide], in assay [1], the IC50 lay within 20 to 100 nM. Further, the Ki in assay [2] is below 20 nM.
Take `Cc1cc(C(=O)NC2(C(=O)NCc3ccc(-n4c(-c5nnn(C)n5)c(Cl)c5ccccc54)cc3)CC2)no1` [Example 26, 5-Methyl-isoxazole-3-carboxylic acid (1-{4-[3-chloro-2-(2-methyl-2H-tetrazol-5-yl)-indol-1-yl]-benzylcarbamoyl}-cyclopropyl)-amide]: the IC50 in assay [1] was below 20 nM. Besides, the Ki in assay [2] is below 20 nM.
Turning to `Cn1nnc(-c2c(Cl)c3ccccc3n2-c2ccc(CNC(=O)C3(NC(=O)c4cccnc4Cl)CC3)cc2)n1` [Example 27, 2-Chloro-N-(1-{4-[3-chloro-2-(2-methyl-2H-tetrazol-5-yl)-indol-1-yl]-benzylcarbamoyl}-cyclopropyl)-nicotinamide], the IC50 in assay [1] was below 20 nM. Besides, the Ki in assay [2] was below 20 nM.
Turning to `Cn1nnc(-c2c(Cl)c3ccccc3n2-c2ccc(CNC(=O)C3(NC(=O)c4ccnc(F)c4)CC3)cc2)n1` [Example 28, N-(1-{4-[3-chloro-2-(2-methyl-2H-tetrazol-5-yl)-indol-1-yl]-benzylcarbamoyl}-cyclopropyl)-2-fluoro-isonicotinamide], the IC50 in assay [1] is below 20 nM. Also, the Ki in assay [2] is below 20 nM.
Consider `Cn1nnc(-c2c(Cl)c3ccccc3n2-c2ccc(CNC(=O)C3(NC(=O)CC(F)(F)F)CC3)cc2)n1` [Example 29, 1-(3,3,3,-Trifluoro-propionylamino)-cyclopropanecarboxylic acid 4-[3-chloro-2-(2-methyl-2H-tetrazol-5-yl)-indol-1-yl]-benzylamide], for which the IC50 in assay [1] was below 20 nM. Besides, the Ki in assay [2] is below 20 nM.
As for `Cn1nnc(-c2c(Cl)c3ccccc3n2-c2ccc(CNC(=O)C3(NC(=O)c4cncc(C(F)(F)F)c4)CC3)cc2)n1` [Example 30, N-(1-{4-[3-chloro-2-(2-methyl-2H-tetrazol-5-yl)-indol-1-yl]-benzylcarbamoyl}-cyclopropyl)-5-trifluoromethyl-nicotinamide], in assay [1], the IC50 is below 20 nM. In assay [2], the Ki is below 20 nM.
For the molecule `Cn1nnc(-c2c(Cl)c3ccccc3n2-c2ccc(CNC(=O)C3(NC(=O)c4cccc(F)c4)CC3)cc2)n1` [Example 31, N-(1-{4-[3-chloro-2-(2-methyl-2H-tetrazol-5-yl)-indol-1-yl]-benzylcarbamoyl}-cyclopropyl)-3-fluoro-benzamide], the IC50 in assay [1] is below 20 nM. Also, the Ki in assay [2] was below 20 nM.
Consider `CNC(=O)c1c(Cl)c2ccccc2n1-c1ccc(C(C)NC(=O)C2(NC(=O)C(F)(F)F)CC2)cc1` (centres unmarked) [Example 32, 3-Chloro-1-[4-(1-{[1-(2,2,2-trifluoro-acetylamino)-cyclopropanecarbonyl]-amino}-ethyl)-phenyl]-1H-indole-2-carboxylic acid methylamide], for which the IC50 in assay [1] is below 20 nM. In addition, in assay [2], the Ki was below 20 nM.
